The text below walks through data of publication PMC2950128, “Protein Evolution by Molecular Tinkering: Diversification of the Nuclear Receptor Superfamily from a Ligand-Dependent Ancestor” (PLoS Biology, 2010).

For the assay, the target named is T1, AqNR1-LBD (Amphimedon queenslandica, UniProt B1A9Z2).
T1 construct: fusion kept for serum incubation), E. coli BL21(DE3) pLysS
In words: lipid extraction and negative-ion ESI/MS of purified LBD. Particulars: co-purified from E. coli (also after complete serum); identified by mass as 18:0, chain isomer not told. Type of assay: binding.

T1 sequence (B1A9Z2 entry or part of it): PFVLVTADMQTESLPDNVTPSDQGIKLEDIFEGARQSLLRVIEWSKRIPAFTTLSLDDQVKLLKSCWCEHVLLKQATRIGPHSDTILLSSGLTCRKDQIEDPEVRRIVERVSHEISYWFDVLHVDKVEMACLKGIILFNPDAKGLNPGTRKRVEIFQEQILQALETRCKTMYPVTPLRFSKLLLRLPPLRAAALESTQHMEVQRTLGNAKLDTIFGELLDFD

Turning to `CCCCCCCCCCCCCCCCCC(=O)O` [18∶0 fatty acid], the “lipid extraction and negative-ion ESI/MS of purified LBD” value was “bound an array of bacterial free fatty acids (FAs)”.
